Test results from paper PMC5702336, “Critical Role of Hepatic Cyp450s in the Testis-Specific Toxicity of (5R)-5-Hydroxytriptolide in C57BL/6 Mice” (Frontiers in Pharmacology, 2017).
“Also recorded” adds a separate entry of the source.

What was measured:
Assay type in all cases: in vivo, mouse
WT and KO mice = assay: 15-day oral toxicological study in WT and hepatic Cpr KO mice (organ weights, H&E, TUNEL, serum chemistry)
Text: Animal use protocols were approved by the Institutional Animal Care and Use Committee of the Shanghai Institute of Materia Medica (Shanghai, China), IACUC No. 2016-10-RJ-136. The Cpr knockout (KO) mice were a gift from Professor Xinxin Ding (Wadsworth Center, Albany, NY, USA). Procedures for animal breeding and genotyping were reported previously (Wu et al., [2005]). Eight to twelve weeks old male KO mice and their WT littermates on a mixed C57BL/6 and 129/Sv genetic background were used in this study. All animals were provided with a certified standard diet and tap water ad libitum during experiments. All animals were maintained under controlled temperature with a 12 h:12 h light/dark cycle. All efforts were made to minimize animal discomfort and illness, and mice were anesthetized with pentobarbital sodium (150 mg/kg, i.p.) before sample collection. No animals died during the experiment.
(§1) For toxicity experiments, mice (n = 3/group) were treated with LLDT-8 (0.5 or 1.0 mg/kg) consecutively administered by gavage for 15 days. Controls received saline. Mice were killed on the 15th-day post-administration and blood, liver, kidney, spleen, testes, and epididymis were collected. About 500 μL blood samples were collected from the heart. The main lobe of the liver, kidney, spleen, and epididymis was fixed in 10% neutral buffered formalin for histological examination, and the left testicle was fixed in modified Davidson's buffer (30% of a 37–40% solution of formaldehyde, 15% ethanol, 5% glacial acetic acid, and 50% distilled H2O) for 16 h followed by 10% neutral buffered formalin for 24 h (Latendresse et al., [2002]). Tissue sections were stained with hematoxylin and eosin (H&E). Remaining tissues were stored at −80°C for RNA and protein extraction.
Sera were assayed for Urea, creatine (CRE), alanine aminotransferase (ALT), and aspartate transaminase (AST) using an automatic HITACHI Clinical Analyzer Model 7080 (Hitachi High-Technologies Corporation, Tokyo, Japan). The intercoefficients of variability in this assay were1.1% (ALT), 0.9% (AST), 1.2% (Urea) and 1.4% (CRE). The intracoefficients of variability in this assay were 2.0% (ALT), 0.9% (AST), 1.2% (Urea) and 5.1% (CRE).
TUNEL assays were performed according to the manufacturer's protocol (In Situ Cell Death Kit, Roche Diagnostics, Indianapolis, IN). In brief, the paraffin-embedded testis tissue samples were deparaffinized three times in exchanges wash of xylene. The testis sections were then gradually rehydrated using decreasing ethanol concentrations (100, 95, 90, 80, and 70%) followed by PBS (pH = 7.4). After digestion with proteinase K (15 μg/mL, Cat. No. 539480, Lot. No. D00148754, Millipore, USA), paraffin-embedded tissue sections were labeled with a TUNEL reaction mixture, which contained terminal deoxynucleotidyl transferase incorporated with fluorescein. And 1 μg/mL DAPI (Sigma, USA) to used to reveal nuclear DNA. After staining, images were obtained with a fluorescent microscope (NIKON TS2, Japan).

RNA polymerase II = RNA polymerase II protein level in testes and liver (western blot); conditions: 0.5–1 mg/kg, 15 days
Experimental: as §1
Cells were washed twice with ice-cold PBS (137 mM NaCl, 2.7 mM KCl, 10 mM Na2HPO4, and 1.8 mM KH2PO4, pH 7.4) and lysed in SDS sample buffer. Cell lysates, containing 20 μg of protein, were separated with SDS-PAGE (8%) and transferred to polyvinylidene difluoride membranes. After blocking in 5% non-fat milk in tris-buffered saline containing 0.1% Tween-20 (pH = 7.6), membranes were incubated with the appropriate primary antibodies at 4°C overnight. The primary antibodies γ-H2AX (Cat. No: 2577, Lot. No: 11, CST, USA) and Pol II (Cat. No: 05-623, Lot. No: 2397109, Millipore, USA) diluted 1:1000 in 5% bovine serum albumin (BSA, Cat. No. B2064-50G, Sigma, USA). Then the membranes were exposed to secondary antibodies (1:10,000, Cat. No.111-035-003, 115-035-003, Jackson ImmunoResearch Laboratories, USA) in 5% non-fat milk for 1 h at room temperature. Immunoreactive proteins were visualized using an enhanced chemiluminescent system (Cat. No. WBKLS0500, Millipore, Shanghai, China).

testes gene expression = assay: qPCR of AR-related, Sertoli cell and germ cell marker genes in testes
Experimental: as §1
Total mouse testes RNA was isolated using a UNIQ-10 total RNA isolation kit (Sangon Biotech, Shanghai, China). One micro gram RNA per sample was reverse-transcribed into cDNA using a PrimeScript RT reagent kit (Cat. No. RR036A, Takara, Dalian, China). The purity and quality of RNA and cDNA were checked by A260/A280 ratio and agarose gel. The qPCR was executed in 20 μL volume containing 10 μL SYBR Premix Ex Taq (Cat. No. RR820A, Takara, Dalian, China), 8 μL of cDNA (80 ng cDNA), 1 μL forward primer (500 nM) and 1 μL reverse primer (500 nM). The sequences of primers for Androgen-binding protein (ABP) and cystatin 12 (Cst12) were referenced from PrimerBank. The sequences for other genes were described elsewhere [Deleted in azoospermia-like (Dazl), Heat shock protein a2 (Hspa2), Phosphoglycerate kinase-2 (Pgk2), Protamine 1 (Prm1), GATA binding protein 1 (Gata1) and Zbtb16 zinc finger and BTB domain containing 16 (Plzf) (Qi et al., [2016]); AR (Ma et al., [2013]); Reproductive homeobox 5 (Rhox5) (Kurek et al., [2015]); Fatty acid binding protein (FABP) (Vanschoonbeek et al., [2008]); Claudin 11 (Cldn11) (Sumigray et al., [2014]); β-actin (Wan et al., [2017])]. The qPCR process was performed using a Rotor Gene Q PCR system (QIAGEN, Shanghai, China). The qPCR amplification program consisted of polymerase activation at 98°C for the 30 s and 40 cycles of denaturation at 95°C for 5 s, annealing, and extension at 60°C for 40 s. The melting curve analysis was carried out for each reaction from 50 to 99°C. The CT values for the samples were normalized to the corresponding β-actin CT values.

[1] = after LLDT-8 treatment, 15 days

In the case of `CC(C)[C@]12O[C@H]1[C@@H]1O[C@]13[C@]1(O[C@H]1C[C@@]1(O)C4=C(CC[C@]31C)C(=O)OC4)[C@@H]2O` [LLDT-8, (5R)-5-hydroxytriptolide], the epididymis weight (WT and KO mice; 0.5–1 mg/kg by gavage 15 days) is reported as “not changed”, the testes weight (WT and KO mice; 0.5–1 mg/kg by gavage 15 days) is reported as “dose-dependently reduced” and the “testis histology (H&E) in KO mice compared to WT mice” value (WT and KO mice; 0.5–1 mg/kg by gavage 15 days) is reported as “reduced germinal cell layers; also recorded: severe vacuolar degeneration; also recorded: absence of spermatids development”. For the same molecule, the body weight (WT and KO mice; 0.5–1 mg/kg by gavage 15 days, WT and KO mice) was “did not alter”, the “hematology and spleen in KO mice” value (WT and KO mice; 15 days by gavage) was “induced hematological change and enlarged spleen” and the “liver injury and kidney damage” value (WT and KO mice; 15 days by gavage, WT and KO mice) was “did not cause liver injury and kidney damage”. The “TUNEL-positive foci in testes of WT mice vs WT mice with saline” value (WT and KO mice; [1]) was “apparently increased”, the “number of TUNEL positive foci in testis, KO mice vs WT mice” value (WT and KO mice; [1]) was “much higher” and the “Pol II protein in the testes of KO mice” value (RNA polymerase II) was “decreased”. For the same molecule, the “Pol II protein level in the livers of KO mice” value (RNA polymerase II) was “did not change”, the “expression of Pol II in the testes and liver of WT mice” value (RNA polymerase II) was “did not change significantly” and the “expression of AR, Rhox5, Cldn11, Cst12, ABP and FABP in testes of WT mice” value (testes gene expression; 0.5–1.0 mg/kg, 15 days) was “did not reduce”. For the same molecule, the “expression of Dazl and Prm1 in testes of WT mice” value (testes gene expression; 15 days) was “marked decrease”, the “expression of Hspa2 in testes of WT mice” value (testes gene expression; 15 days) was “mild decrease” and the “expression of Cldn11, Cst12 and FABP in testes of WT mice” value (testes gene expression; particularly in 1.0 mg/kg group) was “increased”.
